Structures are written as SMILES.

The subject of this experiment is ADP-induced human platelet aggregation. The experiment is described as follows: Inhibition of ADP-mediated platelet aggregation in vitro using platelet-rich plasma (PRP assay). Format: cell-based. The following applies: 5 min; human platelet-rich plasma, 2 μM ADP, 96-well microtiter, OD 650 nm at 5 min; read-out: Activity in the PRP assay. As to the method:
This Example Provides an Assay for the Inhibition of ADP-Mediated Platelet Aggregation In Vitro Using Platelet-Rich Plasma (PRP)
Platelet-rich plasma (PRP) is prepared by centrifugation at 160×g for 20 minutes at room temperature. PRP is collected, and the platelet concentration is determined using a Coulter counter or hemocytometer (platelet concentration should be 2-4×10^8 platelets per mL).
Inhibition of ADP-dependent aggregation is preferably determined in 96-well flat-bottom microtiter plates using a microtiter plate shaker and plate reader similar to the procedure described by Frantantoni et al., Am. J. Clin. Pathol. […] All steps are performed at room temperature. The total reaction volume of 0.2 mL/well includes: PRP (˜6×10^7 total platelets in the presence of plasma), serial dilutions of test compounds (buffer for control wells) in 0.6% DMSO. After about 5 minutes preincubation at room temperature, ADP is added to a final concentration of 2 μM which induces submaximal aggregation. Buffer is added instead of ADP to one set of control wells (ADP-control). The OD of the samples is then determined at 650 nm using a microtiter plate reader (Softmax, Molecular Devices, Menlo Park, Calif.) resulting in the 0 minute reading. The plates are then agitated for 5 min on a microtiter plate shaker and the 5 minute reading is obtained in the plate reader. Aggregation is calculated from the decrease of OD at 650 nm at t=5 minutes compared to t=0 minutes and is expressed as % of the decrease in the ADP control samples after correcting for changes in the unaggregated control samples.

For `CCc1ccc(S(=O)(=O)NC(=O)Nc2ccc(-n3ccc4cc(NC)c(F)cc4c3=O)cc2)s1` [Example 30], the IC50 was under 10 µM.
Next, `CNc1cc2ccn(-c3cc(C)c(NC(=O)NS(=O)(=O)c4ccc(Cl)s4)c(C(C)C)c3)c(=O)c2cc1F` [Example 100, 5-chloro-N-[({4-[7-fluoro-6-(methylamino)-1-oxoisoquinolin-2(1H)-yl]-2-isopropyl-6-methylphenyl}amino)carbonyl]thiophene-2-sulfonamide]: 10 to 30 µM; `CNc1cc2ccn(-c3ccc(NC(=O)NS(=O)(=O)c4cc(Cl)cs4)cc3)c(=O)c2cc1F` [Example 37]: under 10 µM; `CNc1cc2ccn(-c3ccc(NC(=O)NS(=O)(=O)c4ccc(Cl)s4)cn3)c(=O)c2cc1F` [Example 54, 5-chloro-N-[({6-[7-fluoro-6-(methylamino)-1-oxoisoquinolin-2(1H)-yl]pyridin-3-yl}amino)carbonyl]thiophene-2-sulfonamide]: under 10 µM.
The same measure for `CNc1cc2ccn(-c3ccc(NC(=O)NS(=O)(=O)c4ccc(Cl)s4)c(Cl)c3)c(=O)c2cc1F` [Example 103, 5-chloro-N-[({2-chloro-4-[7-fluoro-6-(methylamino)-1-oxoisoquinolin-2(1H)-yl]phenyl}amino)carbonyl]thiophene-2-sulfonamide]: under 10 µM; for `CNc1c(F)cc2c(=O)n(-c3ccc(NC(=O)NS(=O)(=O)c4ccc(Cl)s4)cc3)ccc2c1C#N` [Example 118, 5-chloro-N-[({4-[5-cyano-7-fluoro-6-(methylamino)-1-oxoisoquinolin-2(1H)-yl]phenyl}amino)carbonyl]thiophene-2-sulfonamide]: 10 to 30 µM.
The same measure for `CCCCNc1cc(-n2ccc3cc(NC)c(F)cc3c2=O)ccc1NC(=O)NS(=O)(=O)c1ccc(Cl)s1` [Example 80, N-[({2-(butylamino)-4-[7-fluoro-6-(methylamino)-1-oxoisoquinolin-2(1H)-yl]phenyl}amino)carbonyl]-5-chlorothiophene-2-sulfonamide]: over 30 µM; for `CNc1cc2ccn(-c3cc(C)c(NC(=O)NS(=O)(=O)c4ccc(Cl)s4)c(C)c3)c(=O)c2cc1F` [Example 96, 5-chloro-N-[({4-[7-fluoro-6-(methylamino)-1-oxoisoquinolin-2(1H)-yl]-2,6-dimethylphenyl}amino)carbonyl]thiophene-2-sulfonamide]: under 10 µM; for `CNc1cc2ccn(-c3ccc(NC(=O)NS(=O)(=O)c4ccc(Cl)s4)c(OCC(F)(F)F)c3)c(=O)c2cc1F` [Example 89, 5-chloro-N-({[4-[7-fluoro-6-(methylamino)-1-oxoisoquinolin-2(1H)-yl]-2-(2,2,2-trifluoroethoxy)phenyl]amino}carbonyl)thiophene-2-sulfonamide]: under 10 µM.
In the case of `CCOC(=O)c1cc(NC(=O)NS(=O)(=O)c2ccc(Cl)s2)ccc1-n1ccc2cc(NC)c(F)cc2c1=O` [Example 65, ethyl 5-[({[(5-chlorothien-2-yl)sulfonyl]amino}carbonyl)amino]-2-[7-fluoro-6-(methylamino)-1-oxoisoquinolin-2(1H)-yl]benzoate], the IC50 is 10 to 30 µM.
Next, `CNc1cc2ccn(-c3ccc(NC(=O)NS(=O)(=O)c4ccc(Cl)s4)c(OCCN(C)C)c3)c(=O)c2cc1F` [Example 93, 5-chloro-N-[({2-[2-(dimethylamino)ethoxy]-4-[7-fluoro-6-(methylamino)-1-oxoisoquinolin-2(1H)-yl]phenyl}amino)carbonyl]thiophene-2-sulfonamide]: under 10 µM; `CNc1cc2ccn(-c3ccc(NC(=O)NS(=O)(=O)c4sccc4C)cc3)c(=O)c2cc1F` [Example 41]: 10 to 30 µM.
The same measure for `CNc1cc2ccn(-c3ccc(NC(=O)NS(=O)(=O)c4cccs4)cc3)c(=O)c2cc1F` [Example 27, N-[({4-[7-fluoro-6-(methylamino)-1-oxoisoquinolin-2(1H)-yl]phenyl}amino)carbonyl]thiophene-2-sulfonamide]: under 10 µM; for `CCCc1ccc(S(=O)(=O)NC(=O)Nc2ccc(-n3ccc4cc(NC)c(F)cc4c3=O)cc2)s1` [Example 31]: 10 to 30 µM; for `CNc1cc2ccn(-c3ccc(NC(=O)NS(=O)(=O)c4ccc(Cl)s4)c(OC(C)C)c3)c(=O)c2cc1F` [Example 84, 5-chloro-N-[({4-[7-fluoro-6-(methylamino)-1-oxoisoquinolin-2(1H)-yl]-2-isopropoxyphenyl}amino)carbonyl]thiophene-2-sulfonamide]: 10 to 30 µM.
The same measure for `CNc1cc2ccn(-c3ccc(NC(=O)NS(=O)(=O)c4ccc(Cl)s4)c(F)c3)c(=O)c2cc1F` [Example 58, 5-chloro-N-[({2-fluoro-4-[7-fluoro-6-(methylamino)-1-oxoisoquinolin-2(1H)-yl]phenyl}amino)carbonyl]thiophene-2-sulfonamide]: under 10 µM; for `CNc1c(F)cc2c(=O)n(-c3ccc(NC(=O)NS(=O)(=O)c4ccc(Cl)s4)cc3)ccc2c1C` [Example 120, 5-chloro-N-[({4-[7-fluoro-5-methyl-6-(methylamino)-1-oxoisoquinolin-2(1H)-yl]phenyl}amino)carbonyl]thiophene-2-sulfonamide]: under 10 µM.
As to `CNc1cc2ccn(-c3ncc(NC(=O)NS(=O)(=O)c4ccc(Cl)s4)cc3C)c(=O)c2cc1F` [Example 57, 5-chloro-N-[({6-[7-fluoro-6-(methylamino)-1-oxoisoquinolin-2(1H)-yl]-5-methylpyridin-3-yl}amino)carbonyl]thiophene-2-sulfonamide], the IC50 was over 30 µM.
For the molecule `CNc1cc2ccn(-c3ccc(NC(=O)NS(=O)(=O)c4ccc(Cl)s4)c(C(C)=O)c3)c(=O)c2cc1F` [Example 88, N-[({2-acetyl-4-[7-fluoro-6-(methylamino)-1-oxoisoquinolin-2(1H)-yl]phenyl}amino)carbonyl]-5-chlorothiophene-2-sulfonamide], the IC50 was under 10 µM.
Next, `O=C(Nc1ccc(-n2ccc3cc(NCc4ccc(Cl)cc4)c(F)cc3c2=O)cc1)NS(=O)(=O)c1ccc(Cl)s1` [Example 23, 5-chloro-N-[({4-[6-[(4-chlorobenzyl)amino]-7-fluoro-1-oxoisoquinolin-2(1H)-yl]phenyl}amino)carbonyl]thiophene-2-sulfonamide]: under 10 µM; `CNc1cc2ccn(-c3ccc(NC(=O)NS(=O)(=O)c4ccc(Cl)s4)c(OCCOC(C)=O)c3)c(=O)c2cc1F` [Example 82, 2-{2-[({[(5-chlorothien-2-yl)sulfonyl]amino}carbonyl)amino]-5-[7-fluoro-6-(methylamino)-1-oxoisoquinolin-2(1H)-yl]phenoxy}ethyl acetate]: 10 to 30 µM; `CNc1cc2ccn(-c3ccc(NC(=O)NS(=O)(=O)c4ccc(Cl)s4)cc3COC(C)=O)c(=O)c2cc1F` [Example 62, 5-[({[(5-chlorothien-2-yl)sulfonyl]amino}carbonyl)amino]-2-[7-fluoro-6-(methylamino)-1-oxoisoquinolin-2(1H)-yl]benzyl acetate]: 10 to 30 µM.
On to `CNc1cc2ccn(-c3ccc(NC(=O)NS(=O)(=O)c4ccc(Cl)s4)cc3C#N)c(=O)c2cc1F` [Example 67, 5-chloro-N-[({3-cyano-4-[7-fluoro-6-(methylamino)-1-oxoisoquinolin-2(1H)-yl]phenyl}amino)carbonyl]thiophene-2-sulfonamide], for which the IC50 is 10 to 30 µM.
For `CNc1cc2ccn(-c3cc(C)c(NC(=O)NS(=O)(=O)c4ccc(Cl)s4)c(C(=O)OC)c3)c(=O)c2cc1F` [Example 101, methyl 2-[({[(5-chlorothien-2-yl)sulfonyl]amino}carbonyl)amino]-5-[7-fluoro-6-(methylamino)-1-oxoisoquinolin-2(1H)-yl]-3-methylbenzoate], the IC50 was under 10 µM.
The same measure for `CNc1cc2ccn(-c3cnc(NC(=O)NS(=O)(=O)c4ccc(Cl)s4)c(C)c3)c(=O)c2cc1F` [Example 60, 5-chloro-N-[({5-[7-fluoro-6-(methylamino)-1-oxoisoquinolin-2(1H)-yl]-3-methylpyridin-2-yl}amino)carbonyl]thiophene-2-sulfonamide]: under 10 µM; for `C#CCNc1cc2ccn(-c3ccc(NC(=O)NS(=O)(=O)c4ccc(Cl)s4)cc3)c(=O)c2cc1F` [Example 22, 5-chloro-N-[({4-[7-fluoro-1-oxo-6-(prop-2-ynylamino)isoquinolin-2(1H)-yl]phenyl}amino)carbonyl]thiophene-2-sulfonamide]: under 10 µM.
Next, `CCc1cc(NC(=O)NS(=O)(=O)c2ccc(Cl)s2)ccc1-n1ccc2cc(NC)c(F)cc2c1=O` [Example 73, 5-chloro-N-[({3-ethyl-4-[7-fluoro-6-(methylamino)-1-oxoisoquinolin-2(1H)-yl]phenyl}amino)carbonyl]thiophene-2-sulfonamide]: 10 to 30 µM.
The same measure for `CNc1cc2ccn(-c3ccc(NC(=O)NS(=O)(=O)c4cc(C)cs4)cc3)c(=O)c2cc1F` [Example 38]: under 10 µM.
As to `CNc1cc2ccn(-c3ccc(NC(=O)NS(=O)(=O)c4ccccc4)cc3)c(=O)c2cc1F` [Example 42], the IC50 is under 10 µM.
Next, `CNc1cc2ccn(-c3ccc(NC(=O)NS(=O)(=O)c4ccc(C(F)F)s4)cc3)c(=O)c2cc1F` [Example 32]: under 10 µM.
